Measurements: EPA's ToxValDB 9.5 (doi:10.2903/j.efsa.2010.1857)
Converted amounts (≈) assume the structure as drawn.

Assays:
Oncorhynchus mykiss = conditions: acute; duration: 96 hours; mortality
Cyprinus carpio = conditions: chronic/long-term; duration: 21 days; growth
Rattus norvegicus = conditions: for NOAEL: histopathology: nonneoplastic
Daphnia magna = conditions: chronic/long-term; duration: 17 days; reproduction
Apis mellifera = conditions: acute; duration: 48 hours; oral; unspecified; mortality
Colinus virginianus = conditions: for LC50: diet
Poecilus cupreus = conditions: not reported; morphology
Anas platyrhynchos = conditions: acute; oral; unspecified; mortality

CC1=C(C(=O)Nc2ccccc2)SCCO1 [Carboxin]
LC50 (Oncorhynchus mykiss): 2.3 µg/mL (≈ 9.77 µM)
LC50 (Tagia sp.; acute, duration: 14 days, mortality): > 500 mg/kg
NOEC (Tagia sp.; chronic/long-term, duration: 56 days): 100 mg/kg
NOEC (Cyprinus carpio): 0.32 mg/L
LD50 (Rattus norvegicus; acute, oral, mortality): 2590 mg/kg-day
NOAEL (Rattus norvegicus; chronic, duration: 2 years, M): 0.82 mg/kg-day
NOEL (Rattus norvegicus; reproduction developmental, reproduction): 20 mg/kg-day
NOAEL (Rattus norvegicus; subchronic, duration: 90 days, oral): 5.5 mg/kg-day
NOEC (Daphnia magna): 0.32 mg/L
LD50 (Apis mellifera): > 100 µg/piece
LC50 (Colinus virginianus; acute, oral, mortality): > 985 mg/kg-day
LD50 (Colinus virginianus; acute, oral, mortality): > 2150 mg/kg-day
NOEC (Colinus virginianus; reproduction developmental): 83 mg/kg-day
LEL (Poecilus cupreus): 776 mg/kg

CC1=C(C(=O)Nc2ccccc2)S(=O)(=O)CCO1 [Oxycarboxin]
LD50 (Anas platyrhynchos): 1250 mg/kg-day
LC50 (Colinus virginianus; acute, oral, mortality): > 2200 mg/kg-day
